{"source": "patent US20040198605A1", "about": "“Growth promoter for gramineous plants” (priority 2001, published 2004)", "key": {"[1]": {"test_system": "Lawn sods (bent grass; breed name: BENCROSS)", "assay": "Soil culture of lawns, leaf surface sprinkling test", "assay_type": "in vivo", "settings": "for Weight of Cut Stem/Leaf after Dried (mean of three pots) / Weight of Cut Stem/Leaf after Dried (individual pots): cut on 77th day; for Weight of Cut Stem/Leaf after Dried (individual pots): three pots", "description": "Lawn sods having a diameter of 4 cm and a thickness of 3 cm (bent grass; breed name: BENCROSS) were each planted in 1/50 m^2 Wagner pots, and a leaf surface sprinkling test was carried out on a group of three pots. To the soil of each pot, a chemical fertilizer (12-8-10) was add-mixed as the initial fertilizer in an amount of 1 g/pot. Serine was diluted with water to the concentrations shown in the following Table 1 and sprinkled by means of a sprinkler on the 10th day and 24th day after planting. On the 77th day after planting, the plant parts exposed on the ground were cut, and the weight thereof after dried was measured."}, "[2]": {"test_system": "Seedlings of lawns (western lawns; Evergreen Lawn Grass)", "assay": "Hydroponics (water culture) of lawns, serine sprinkled over the surfaces of leaves", "assay_type": "in vivo", "settings": "26th day", "description": "Seedlings of lawns (western lawns; Evergreen Lawn Grass) were raised and were divided into two groups, A and B, each consisting of 60 seedlings so as to carry out water culture. A given amount of a liquid fertilizer was added to a water culture solution, to which inosine was then added to a concentration of 0.2 ppm. The testing period started on Oct. 6, 1999 and ended on Nov. 1, 1999 (26 days). Group A was set as a control area. As for Group B, 5 ml of a solution so prepared as to have a serine concentration of 20 ppm was sprinkled over the surfaces of leaves every day over a period of 15 days. On the 26th day, the weight of 5 average grown seedlings selected from each group was measured."}, "[3]": {"settings": "5 ml of serine 20 ppm sprinkled on leaves daily for 15 days, inosine 0.2 ppm in water culture solution, 5 average seedlings"}}, "note": "Values joined by “and” are separate entries in the source; they are usually repeats but may differ in a detail not shown here. Equal values may be shown once."}
{"smiles": "N[C@@H](CO)C(=O)O", "note": "[Serine, serine]", "values": [{"measurement": "Weight of Cut Stem/Leaf after Dried (mean of three pots)", "setting": "[1]; serine 18.3 ppm sprinkled on 10th and 24th day", "value": "2.27 ± 0.12", "unit": "g/pot"}, {"measurement": "Weight of Cut Stem/Leaf after Dried (individual pots)", "setting": "[1]; serine 18.3 ppm sprinkled on leaf surfaces on 10th and 24th day after planting", "value": "2.17 g/pot and 2.43 g/pot and 2.20 g/pot"}, {"measurement": "Percentage (dried weight, Control = 100)", "setting": "[1]; serine 18.3 ppm, 77th day, * statistically significant difference", "value": "185*"}, {"measurement": "Weight of Cut Stem/Leaf after Dried (mean of three pots)", "setting": "[1]; serine 183 ppm sprinkled on 10th and 24th day", "value": "1.27 ± 0.16", "unit": "g/pot"}, {"measurement": "Weight of Cut Stem/Leaf after Dried (individual pots)", "setting": "[1]; serine 183 ppm sprinkled on leaf surfaces on 10th and 24th day after planting", "value": "1.26 g/pot and 1.47 g/pot and 1.08 g/pot"}, {"measurement": "Percentage (dried weight, Control = 100)", "setting": "[1]; serine 183 ppm, 77th day", "value": 104}, {"measurement": "Growth (in words)", "setting": "[1]; serine-treated areas, particularly 18.3 ppm-treated areas, 77th day", "value": "good growth was observed"}, {"measurement": "Average Leaf Length", "setting": "[2]; [3]", "value": 22, "unit": "cm"}, {"measurement": "Root Length", "setting": "[2]; [3]", "value": 4.1, "unit": "cm"}, {"measurement": "Root length, leaf length and total weight in the raw state (in words)", "setting": "[2]; serine-treated area", "value": "good"}, {"measurement": "Total Weight in Raw State", "setting": "[2]; total of above-ground portions and roots of 5 undried lawn plants, serine 20 ppm on leaves daily for 15 days, inosine 0.2 ppm in water culture", "value": 0.35, "unit": "g"}]}
